Test results published in the METLIN SMRT retention time set (Domingo-Almenara et al. 2019).

Assay: gradient 5% acetonitrile 3 min, to 50% in 2 min, to 85% in 15 min, held 3 min, 100 µL/min
Details: column: Zorbax Extend-C18 2.1 x 50 mm; eluents: water / acetonitrile, 0.1% formic acid
How it was run: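 Pure standards were run in mixtures of ~100 molecules by HPLC coupled to a quadrupole time-of-flight mass spectrometer. The column was a Zorbax Extend-C18 (2.1 × 50 mm, 1.8 μm) at 100 μL/min, with water and acetonitrile each containing 0.1% formic acid, in positive and negative ionization mode. Dead and dwell volumes were 40 μL and 900 μL. Retention time was taken from computationally picked adduct peaks, each manually inspected, with data collected over 3 months.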
With `CCOC(=O)C1=C(CN2CCC(Cc3ccccc3)CC2)NC(=O)NC1c1ccco1` (configuration not stated) the RP-LC retention time was 708 s.
Compound `Cc1ccsc1C(=O)NCCn1c(=O)n(Cc2ccc(F)cc2)c2cccnc21` has an RP-LC retention time of 824 s.
Compound `Cc1nnc(-c2ccc3c(c2)OCO3)o1` has an RP-LC retention time of 706 s.
Compound `COc1ccc(OC)c(NC(=O)N(C)Cc2nc3cc(C(=O)N(C)C)ccc3n2C)c1` has an RP-LC retention time of 605 s.
For `CC(=O)Nc1cc(C(=O)NCc2ccccc2C)c2ccc(C)nc2c1`, the RP-LC retention time was 610 s.
For `COc1cc2c(cc1OC)C(C(=O)N1CC(C)CC(C)C1)C(c1cccnc1)N(C)C2=O` (configuration not stated), the RP-LC retention time was 659 s.
Compound `CC(=O)Nc1cccc(-c2nc(-c3ccc4ncn(C(C)C)c4c3)no2)c1` has an RP-LC retention time of 660 s.
For `CCNC(=O)C1CCCN(c2nc3ncn(CC(=O)Nc4c(C)cccc4CC)c(=O)c3s2)C1` (configuration not stated), the RP-LC retention time was 703 s.
Work on `CCc1ccc(NC(=O)c2ccc(=O)n(CCN3CCOCC3)c2)cc1` yielded an RP-LC retention time of 637 s.
Work on `Cc1nn(CC(=O)NC2CC2)c(=O)c2nc(-c3ccccc3)sc12` yielded an RP-LC retention time of 711 s.
In the case of `CC(C)n1ccc(-c2nnc(NC(=O)C3CCCN(S(C)(=O)=O)C3)o2)n1` (configuration not stated), the RP-LC retention time is reported as 609 s.
With `O=C(NCC1CCOCC1)c1c[nH]c2ccccc12` the RP-LC retention time was 636 s.
For `COc1ccc(-c2noc(-c3nnn4c3COC(c3ccc(C)cc3C)C4)n2)cc1OC` (configuration not stated), the RP-LC retention time was 1190 s.
`Cc1sc(NC(=O)Cc2csc(-c3ccccc3)n2)nc1-c1ccc(Cl)cc1` showed an RP-LC retention time of 1280 s.
Work on `CCN1CCN(c2ccc(NC(=O)C(C)(C)C)c(C(=O)O)c2)CC1` yielded an RP-LC retention time of 594 s.
With `O=C(Cn1cnc2nc(N3CCC(C(=O)NC4CC4)CC3)sc2c1=O)NCc1ccc(F)cc1` the RP-LC retention time was 655 s.
`CN1c2cc(F)ccc2C(=O)NC12CCN(C(=O)c1ccc3c(c1)OCO3)CC2` showed an RP-LC retention time of 724 s.
Compound `Cc1nc([N+](=O)[O-])c(N2CCCC2)n1Cc1ccccc1` has an RP-LC retention time of 817 s.
With `CC(C)CNC(=O)c1ccc(-n2cc(CNC(=O)C3CC3)cn2)cc1` the RP-LC retention time was 682 s.
With `CCc1noc(-c2cnc3nc(C)ccc3c2Nc2ccc(OC)cc2)n1` the RP-LC retention time was 764 s.
`CCOC(=O)C1C(=O)C=C(c2ccco2)CC1c1ccccc1Cl` (configuration not stated) showed an RP-LC retention time of 1090 s.
Compound `CN(CC1CCOC1)C(=O)c1ccccc1Br` (configuration not stated) has an RP-LC retention time of 697 s.
For `COc1cccc(NC(=O)Cn2c(=O)n(-c3ccccc3)c(=O)c3c2cc(C)n3C)c1`, the RP-LC retention time was 789 s.
In the case of `CCOC(=O)c1cccc(NC(=O)NC2COc3ccc(OC)cc3C2)c1` (configuration not stated), the RP-LC retention time is reported as 906 s.
Work on `CCc1nc2cc(N3CCC(C(=O)N(C)Cc4ccco4)CC3)cnc2nc1CC` yielded an RP-LC retention time of 755 s.
In the case of `Cc1cc2c(=O)n(CC(=O)NCc3ccc(F)cc3)ccc2s1`, the RP-LC retention time is reported as 751 s.
With `S=C1NCCN1c1ccccc1Cl` the RP-LC retention time was 702 s.
For `O=C(c1ccc(C(F)(F)F)cc1)N1CCc2nc(-c3ccc(Cl)cc3)ncc2C1`, the RP-LC retention time was 1170 s.
With `Cc1cc(N2CCN(S(=O)(=O)c3cc(F)ccc3F)CC2)nc(N2CCCCC2)n1` the RP-LC retention time was 769 s.
In the case of `Cc1ccc(C(=O)N2CCN(c3nnc4cccc(C)n34)CC2)cc1C`, the RP-LC retention time is reported as 705 s.
Compound `CC(=O)N1CCc2ccc(NC(=O)Nc3ccccc3Cl)cc21` has an RP-LC retention time of 755 s.
For `COc1ccc(-c2nc(C3CC(=O)N(c4ccc(F)cc4)C3)no2)c(OC)c1` (configuration not stated), the RP-LC retention time was 898 s.
With `CCn1c(=O)c(C)nc2cc(-c3noc(-c4ccc(C)cc4)n3)ccc21` the RP-LC retention time was 1200 s.
`Cc1cc(=O)n(CC(=O)Nc2ccccc2F)c(-c2ccc(F)cc2)n1` gave an RP-LC retention time of 1040 s.
`Cc1ccc(CNC(=O)c2ccc(-c3ccsc3)nc2)cc1` gave an RP-LC retention time of 905 s.
For `CCOC(=O)c1cc(S(=O)(=O)N2CCCC2C(=O)Nc2ccc(F)cc2)cn1C` (configuration not stated), the RP-LC retention time was 920 s.
`Cc1ccccc1CNC(=O)C1CCCN1S(=O)(=O)c1cc2c(cc1C)NC(=O)C(C)O2` (configuration not stated) showed an RP-LC retention time of 814 s.
